In article PMC10657444, “Design and evaluation of tadpole-like conformational antimicrobial peptides” (Communications Biology, 2023):
Converted amounts (≈) assume the structure as drawn. Residues, ends and D or L forms follow the SMILES beside them.

Assays:
Acinetobacter baumannii = assay type: cell-based
Excerpt: (§1) Bacteria were cultivated in Luria-Bertani (LB) broth.

MRSA = assay type: cell-based, Staphylococcus aureus
Excerpt: as §1

MRSA USA 300 = assay type: cell-based, Staphylococcus aureus
Excerpt: as §1

MRSA ATCC 43300 = assay type: cell-based, Staphylococcus aureus; details: ATCC 43300
Excerpt: as §1

MRSA 3393 = assay type: cell-based, Staphylococcus aureus; details: 3393
Excerpt: as §1

[1] = test system: K. pneumoniae ATCC 700603; assay type: cell-based, Klebsiella pneumoniae
Excerpt: as §1

K. pneumoniae 3026 = assay type: cell-based, Klebsiella pneumoniae
Excerpt: as §1

E. coli S = assay type: cell-based, Escherichia coli
Excerpt: as §1

E. coli ATCC 25922 = assay type: cell-based, Escherichia coli
Excerpt: as §1

HEK293T cells = assay: MTT cytotoxicity assay; assay type: cell-based, human
Experimental: (§2) To determine the cytotoxicity of the peptides, we used the MTT (3-(4,5)-dimethylthiahiazo (-z-y1)-3,5-di-phenytetrazoliumromide) dye reduction assay against HEK293T cells. In brief, the 100 μL of cells in 96-well plate were incubated for 24 h at 37 °C, 5% CO2, and then peptide solutions (concentrations ranging from 100 to 0.39 μM) were added and further incubated for 72 h. MTT solution (5 mg/mL) was added and further incubated for 4 h. After incubation, the precipitated MTT formazan crystal was dissolved by addition of dimethyl sulfoxide (DMSO). […]

MTT cytotoxicity assay = assay type: cell-based, human; details: human
Experimental: as §2

sheep red blood cells = assay: Hemolysis assay; details: red cells of sheep, 1 h
Experimental: To evaluate the hemolysis effects of peptides, red blood hemolysis was performed as described with minimum modifications. Sterile defibrated sheep blood was purchased from Guangzhou Hongquan Biotechnology Co., LTD. Blood cells were adjusted to 2 × 10^9 cells/mL in phosphate-buffered saline (PBS, pH 7.4). In total, 98 μL sheep red blood cell suspension was incubated with 2 μL of peptides at different concentrations ranging from 3.13 to 100 µM. After incubation for 1 h at 37 °C, the cells were centrifuged and the absorbance of the supernatant was measured at 450 nm. The value for “zero hemolysis” was determined using sterile PBS, while 100% hemolysis was established using 1.5% (v/v) Triton X-100. Hemolysis of testing sample was calculated as the percentage of Triton X-100-induced hemolysis.

A. baumannii 1318 = assay type: cell-based, Acinetobacter baumannii
Excerpt: as §1

A. baumannii 1337 = assay type: cell-based, Acinetobacter baumannii
Excerpt: as §1

[2] = test system: all tested bacterial strains; details: range over all strains
Excerpt: The bacterial strains used in this study included the Gram-positive bacteria methicillin resistant Staphylococcus aureus (MRSA) (MRSA ATCC 43300 and 2 clinically isolated strains presented as MRSA USA 300 and MRSA 3393), Gram-negative bacteria Escherichia coli (E. coli ATCC 25922, and 1 clinically isolated strain presented as E. coli S), Klebsiella pneumoniae (K. pneumoniae ATCC 700603, and 1 clinically isolated strain presented as K. pneumoniae 3026), and Acinetobacter baumannii (2 clinically isolated strains presented as A. baumannii 1318 and A. baumannii 1337). Bacteria were cultivated in Luria-Bertani (LB) broth.
The Clinical and Laboratory Standards Institute (CLSI)-defined broth microdilution testing method (M07, 11th edition, 2018) was used to determine MICs for peptides. Briefly, the concentrations of the peptides and ciprofloxacin in the assay wells ranged from 100 μM to 0.01 μM as a 11-point dose response plated as a 2-fold dilution series across the wells of the plate in duplicate for each independent biological replicate. Bacterial susceptibility assays were performed in Cation-Adjusted Mueller Hinton Broth (CAMHB), and using a final cell density of 5 × 10^6 CFU/mL for bacteria[36]. Final assay volumes were 100 μL per well with MICs determined by measuring absorbance at 595 nm with a microplate reader following 18–20 h incubation at 37 °C. […]

[3] = HEK293T cells, OD450, cytotoxicity (Fig 2a), replicates

SMILES	MIC Gram+ MRSA USA 300 (MRSA USA 300)	MIC Gram+ MRSA ATCC 43300 (MRSA ATCC 43300)	MIC Gram+ MRSA 3393 (MRSA 3393)	MIC Gram- K. p ATCC 700603 [1]	MIC Gram- K. p 3026 (K. pneumoniae 3026)	MIC Gram- E. coli S (E. coli S)	MIC Gram- E. coli ATCC 25922 (E. coli ATCC 25922)	toxicity / cytotoxicity against HEK293T cells (in words) (HEK293T cells)	IC50 at 72 h (MTT cytotoxicity assay)	viability at 72 h, 0.39 µM (MTT cytotoxicity assay; [3])	viability at 72 h, 0.78 µM (MTT cytotoxicity assay; [3])	viability at 72 h, 1.57 µM (MTT cytotoxicity assay; [3])	viability at 72 h, 3.13 µM (MTT cytotoxicity assay; [3])	viability at 72 h, 12.5 µM (MTT cytotoxicity assay; [3])	viability at 72 h, 25 µM (MTT cytotoxicity assay; [3])	HC10 (concentration inducing 10% hemolysis) (sheep red blood cells)	MIC Gram- A. b 1318 (A. baumannii 1318)	MIC Gram- A. b 1337 (A. baumannii 1337)	further results
CC[C@H](C)[C@H](NC(=O)[C@H](CCCNC(=N)N)NC(=O)[C@H](CCCNC(=N)N)NC(=O)[C@H](CC(C)C)NC(=O)[C@@H](N)Cc1ccccc1)C(=O)N[C@@H](Cc1ccccc1)C(=O)N[C@@H](Cc1ccccc1)C(=O)N[C@@H](Cc1ccccc1)C(=O)N[C@@H](Cc1ccccc1)C(N)=O [HT1] (H-FLRRIFFFF-NH2)	6.25 µM (≈ 8.07 µg/mL)	3.13 µM (≈ 4.04 µg/mL)	6.25 µM (≈ 8.07 µg/mL)	> 100 µM	> 100 µM	12.5 µM (≈ 16.1 µg/mL)	25 µM (≈ 32.3 µg/mL)	high toxicity	2700 nM	93.6%	87.3%	78%	30.5%	0.557%	1.3%	25.0 µM	25 µM (≈ 32.3 µg/mL)	25 µM (≈ 32.3 µg/mL)	MIC against Gram-negative Acinetobacter baumannii (Acinetobacter baumannii): 25 µM (≈ 32.3 µg/mL); MICs against MRSA (MRSA): 3.13 to 6.25 µM
CC[C@H](C)[C@H](NC(=O)[C@H](CCCNC(=N)N)NC(=O)[C@H](CCCNC(=N)N)NC(=O)[C@H](CC(C)C)NC(=O)[C@H](Cc1ccccc1)NC(=O)[C@@H](N)CCCNC(=N)N)C(=O)N[C@@H](Cc1ccccc1)C(=O)N[C@@H](CCCNC(=N)N)C(=O)N[C@@H](Cc1ccccc1)C(=O)N[C@@H](Cc1ccccc1)C(=O)N[C@@H](Cc1ccccc1)C(N)=O [HT4] (H-RFLRRIFRFFF-NH2)	3.13 µM (≈ 5.02 µg/mL)	3.13 µM (≈ 5.02 µg/mL)	3.13 µM (≈ 5.02 µg/mL)	3.13 µM (≈ 5.02 µg/mL)	12.5 µM (≈ 20 µg/mL)	12.5 µM (≈ 20 µg/mL)	6.25 µM (≈ 10 µg/mL)	high toxicity	2600 nM	85.8%	80%	70.9%	34.7%	13.4%	5.83%	12.5 µM	3.13 µM (≈ 5.02 µg/mL)	3.13 µM (≈ 5.02 µg/mL)	MICs against all tested bacterial strains [2]: 3.13 to 12.5 µM; viability at 72 h, 6.25 µM (MTT cytotoxicity assay; [3]): 22.3%
